Where only a bound is given, the exact number is not on record here.

The target in the test is Recombinant human HSD17B13 (Homo sapiens (Human), UniProt Q7Z5P4). Nature of the test: HSD17B13 rapid-fire mass spectrometry assay (RF/MS assay). The settings on record: inhibition of HSD17B13; LTB4 10 μM, NAD+ 0.5 mM, RT 3 h; IC50 ranges A-E. The format is biochemical. The text has this: HSD17B13 rapid-fire mass spectrometry assay (RF/MS assay). Recombinant human HSD17B13 was expressed and purified from sf9 cells at Charles River Labs (Saffron Walden, UK). Leukotriene B4 (Catalog #71160-24-2) and 12-oxoleukotriene B4 (Catalog #20140) were purchased from Cayman Chemicals (Ann Arbor, Michigan.). NAD+ (Catalog #N8285), BSA (Catalog #A7030), DMSO (Catalog #D2650), and Tween-20 (Catalog #11332465001) were purchased from Sigma (St. Louis, MO). Formic acid (Catalog #28905) was from ThermoFisher Scientific and 384 deep well PP microplates (Catalog #784261) were from Greiner Bio-One. In a typical IC50 assay performed in a 384w PP microplate, test compounds (0-100 μM) were incubated with HSD17B13 (80 nM), LTB4 (10 μM), and NAD^+ (0.5 mM) in 10 μL assay buffer (20 mM Tris (pH 7.5), BSA (0.005%), and Tween-20 (0.01%)) at RT for 3 h. The assays were quenched by adding 20 μL of 0.15% aqueous formic acid and the plates were frozen at −80° C. RF/MS analysis was performed at PureHoney Technologies (Billerica, MA) on a RapidFire RF300 system (Agilent Technologies, Inc.) coupled to an API 4000 triple quadrupole mass spectrometer (Sciex) equipped with Agilent RapidFire cartridge type A (C4). The mobile phase was 0.09% formic acid and 0.01% trifluoracetic acid in water (Buffer A) and 0.09% formic acid and 0.01% trifluoracetic acid in 80% aqueous acetonitrile (Buffer B). The RapidFire method conditions were the following: 250 ms aspirate, 3000 ms load/desalt, 4000 ms elute, and 500 ms re-equilibrate. RF-MS/MS was performed in negative polarity (−4500 V), the source temperature was 650° C., and gas 1 and gas 2 settings for nitrogen were set to 50. The curtain gas and collision gas were also nitrogen and were set to 20 and 12, respectively. Leukotriene B4 (335.3) and 12-oxoLeukotriene B4 (333.3) SRM transitions were optimized with Discovery Quant software and extracted ion counts for these analytes were determined.
Chain of Recombinant human HSD17B13 (Q7Z5P4 20-300): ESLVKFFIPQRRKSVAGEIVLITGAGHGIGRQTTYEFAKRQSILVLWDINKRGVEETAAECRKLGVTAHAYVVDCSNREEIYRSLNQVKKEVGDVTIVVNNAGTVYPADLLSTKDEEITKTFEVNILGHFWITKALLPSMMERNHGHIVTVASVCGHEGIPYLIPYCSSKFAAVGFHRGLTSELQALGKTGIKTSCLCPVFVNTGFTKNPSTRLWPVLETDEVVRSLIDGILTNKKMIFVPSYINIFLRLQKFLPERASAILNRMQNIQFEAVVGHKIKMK
Data Analysis. HSD17B13 enzyme activity was measured as percent conversion of extracted ion counts and normalized to high and low controls to determine percent residual activity at various concentrations of test compounds. Data were fitted to normalized activity (variable slope) versus concentration fit in GraphPad Prism 7 to determine IC50. All experiments were run in duplicates.
By using above method, the inhibition of HSD17B13 was evaluated for the compounds of Formula (I). IC50 ranges are as follows: A=IC50<0.100 μM; B=0.100 μM<IC50<0.500 μM; C=0.500 μM<IC50<1 μM; D=1 μM<IC50<100 μM; E=IC50>100 μM
A word on the IC50: it is the point on the concentration scale where inhibition reaches its midpoint. As for `COc1cc(C(=O)O)c(F)cc1NS(=O)(=O)c1csc(-c2ccc(-c3ccc(C(F)(F)C(F)(F)F)cc3)cc2C(F)(F)F)n1` [Example 784], the IC50 is less than 100 nM.
The figure for `COc1cc(C(=O)O)c(F)cc1NS(=O)(=O)c1cnc(-c2ccc([C@H]3CC[C@@H](C(F)(F)F)CC3)cc2)s1` [Example 724] is less than 100 nM.
Take `COc1cc(C(=O)O)c(F)cc1NS(=O)(=O)c1csc(-c2ccc(F)cc2)n1` [Example 767]: the IC50 was in the range of 100 to 500 nM.
For `COc1cc(C(=O)O)ccc1NS(=O)(=O)c1csc(-c2ccc(-c3ccc(F)cc3)cc2)n1` [Example 296] the value was 1000 to 100000 nM; for `COc1cc(C(=O)O)c(F)cc1NS(=O)(=O)c1csc(-c2ccc(C34CC5C[C@H](C3)C[C@H](C5)C4)cc2)n1` [Example 732], 100 to 500 nM; for `COc1cc(C(=O)O)ccc1NS(=O)(=O)N1Cc2nc(C#CC3CCCC3)sc2C1` [Example 345], 100 to 500 nM.
The figure for `COc1cc(C(=O)O)ccc1NS(=O)(=O)c1csc(CCc2ccccc2)n1` [Example 181] is 1000 to 100000 nM.
Take `COc1cc(C(=O)O)ccc1NS(=O)(=O)c1csc(C#Cc2ccccc2)n1` [Example 150]: the IC50 lay in the range of 100 to 500 nM.
`COc1cc(C(=O)O)c(F)cc1NS(=O)(=O)c1csc(C#Cc2cccc(Cl)c2)n1` [Example 234]: the IC50 lay within 100 to 500 nM.
For `COc1cc(C(=O)O)ccc1NS(=O)(=O)c1csc(-c2ccc(C3CCCC(OC)C3)cc2)n1` (centres unmarked) [Example 426, 3-methoxy-4-((2-(4-(3-methoxycyclohexyl)phenyl)thiazole)-4-sulfonamido)benzoic acid] the value was 100 to 500 nM; for `COc1cc(C(=O)O)ccc1NS(=O)(=O)c1ccc(-c2cccc(-c3ccc(F)cc3)c2)s1` [Example 251], 100 to 500 nM; for `CC[C@H]1CC[C@H](c2ccc(-c3nc(S(=O)(=O)Nc4cc(F)c(C(=O)O)cc4OC)cs3)cc2)CC1` [Example 723], less than 100 nM.
The figure for `COc1cc(C(=O)O)c(F)cc1NS(=O)(=O)c1csc(-c2ccc(-c3cc(F)c(C(F)(F)F)c(F)c3)c(OC(C)C)c2F)n1` [Example 790] is less than 100 nM.
The figure for `COc1cc(C(=O)O)ccc1NS(=O)(=O)c1ccc(C2CCC(c3ccccc3)CC2)cc1F` (centres unmarked) [Example 357] is 100 to 500 nM.
Turning to `COCCOc1c(C2CCC(C)(C)CC2)ccc(-c2nc(S(=O)(=O)Nc3cc(F)c(C(=O)O)cc3OC)cs2)c1F` [Example 580], the IC50 was in the range of 100 to 500 nM.
For `COc1cc(C(=O)O)c(F)cc1NS(=O)(=O)c1cnn(-c2ccc([C@H]3CC[C@H](C(C)C)CC3)cc2)c1` [Example 688] the value was 100 to 500 nM; for `COc1cc(C(=O)O)ccc1NS(=O)(=O)c1csc(N2CCN(C(=O)OC(C)C)CC2)n1` [Example 347], 1000 to 100000 nM.
The figure for `COc1cc(C(=O)O)c(F)cc1NS(=O)(=O)c1csc(-c2ccc(C3=CCC(C)(C)CC3)c(OC)c2F)n1` [Example 545] is less than 100 nM; for `CCOc1c(C2=CCC(C(C)C)CC2)ccc(-c2nc(S(=O)(=O)Nc3cc(F)c(C(=O)O)cc3OC)cs2)c1F` (centres unmarked) [Example 809] it is less than 100 nM.
For `COc1cc(C(=O)O)ccc1NS(=O)(=O)c1csc(-c2cccc3cnn(C)c23)n1` [Example 403, 3-methoxy-4-((2-(1-methyl-1H-indazol-7-yl)thiazole)-4-sulfonamido)benzoic acid] the value was 500 to 1000 nM; for `CCC[C@H]1CC[C@H]([C@H]2CC[C@H](c3nc(S(=O)(=O)Nc4cc(F)c(C(=O)O)cc4OC)cs3)CC2)CC1` [Example 734], 100 to 500 nM; for `COc1cc(C(=O)O)ccc1NS(=O)(=O)c1ccc2sc(-c3ccc(C4CCC(C)(C)CC4)cc3)nc2c1` [Example 456, 4-((2-(4-(4,4-dimethylcyclohexyl)phenyl)benzo[d]thiazole)-5-sulfonamido)-3-methoxybenzoic acid], 1000 to 100000 nM.
For the compound `O=C(O)c1ccc(NS(=O)(=O)c2csc(-c3ccccc3)n2)cc1` [Example 15], the IC50 fell in the range of 500 to 1000 nM.
For `C=C(c1ccc(-c2ncc(S(=O)(=O)Nc3ccc(C(=O)O)cc3OC)s2)cc1)C1CC1` [Example 450] the value was less than 100 nM; for `COc1cc(C(=O)O)ccc1NS(=O)(=O)c1csc(N2CCOCC2)n1` [Example 166], 1000 to 100000 nM; for `O=C(O)c1ccc(NS(=O)(=O)c2cnc(-c3ccc(F)cc3)s2)cc1O` [Example 107], 500 to 1000 nM.
For `COc1cc(C(=O)O)ccc1NS(=O)(=O)c1csc(-c2ccc(C3CCC3)cc2)n1` [Example 351] the value was less than 100 nM; for `COc1cc(C(=O)O)ccc1NS(=O)(=O)c1coc(-c2ccc(C3CCCCC3)cc2)n1` [Example 419], 100 to 500 nM.
`COc1cc(C(=O)O)c(F)cc1NS(=O)(=O)c1csc(-c2ccc(-c3ccc(C45CC6C[C@H](C4)C[C@H](C6)C5)cc3)cc2)n1` [Example 731]: the IC50 was less than 100 nM.
For `COc1cc(C(=O)O)ccc1NS(=O)(=O)c1csc(N2CCN(c3ccc(N(C)C)cc3)CC2)n1` [Example 291] the value was 1000 to 100000 nM; for `CCCCC[C@H]1CC[C@H](c2ccc(-c3nc(S(=O)(=O)Nc4cc(F)c(C(=O)O)cc4OC)cs3)cc2)CC1` [Example 706], less than 100 nM; for `O=S(=O)(Nc1ccccc1)c1cnc(-c2ccc(F)cc2)s1` [Example 24], more than 100000 nM.
The figure for `COc1cc(C(=O)O)ccc1NS(=O)(=O)c1coc(-c2ccc(C3CCC(C(F)(F)F)CC3)cc2)n1` (centres unmarked) [Example 468] is less than 100 nM; for `COc1cc(C(=O)O)c(F)cc1NS(=O)(=O)c1ccn(-c2ccc([C@H]3CC[C@@H](C(F)(F)F)CC3)cc2)n1` [Example 691] it is 100 to 500 nM.
Take `COc1cc(C(=O)O)ccc1NS(=O)(=O)c1csc(-c2ccc(C3CCCC3)cc2)n1` [Example 300]: the IC50 fell in the range of 500 to 1000 nM.
The figure for `COc1cc(C(=O)O)ccc1NS(=O)(=O)c1csc(N2CCCC(C(=O)c3ccccc3)C2)n1` (centres unmarked) [Example 286] is 500 to 1000 nM.
The figure for `COc1nc2c(cc1C(=O)O)CN(S(=O)(=O)c1ccc(F)cc1)CC2` [Example 8, 6-((4-fluorophenyl)sulfonyl)-2-methoxy-5,6,7,8-tetrahydro-1,6-naphthyridine-3-carboxylic acid] is more than 100000 nM.
The figure for `COc1cc(C(=O)O)c(F)cc1NS(=O)(=O)c1ccc2sc(-c3ccc(C4CCC(C)(C)CC4)cc3C(F)(F)F)nc2c1` [Example 704] is 100 to 500 nM; for `O=C(O)c1cc(O)c(NS(=O)(=O)c2cnc(-c3ccc(F)cc3)s2)cc1F` [Example 61] it is less than 100 nM.
As to `CCC[C@H]1CC[C@H](c2ccc(-c3nc(S(=O)(=O)Nc4cc(F)c(C(=O)O)cc4OC)cs3)c(F)c2)CC1` [Example 755], the IC50 was less than 100 nM.
As to `CC[C@H]1CC[C@H](c2ccc(-c3nc(S(=O)(=O)Nc4cc(F)c(C(=O)O)cc4OC)cs3)c(C(F)(F)F)c2)CC1` [Example 787], the IC50 was less than 100 nM.
Turning to `COc1cc(C(=O)O)c(F)cc1NS(=O)(=O)c1csc(-c2cc(F)c(C3CCC(C)(C)CC3)c(F)c2)n1` [Example 517], the IC50 was 100 to 500 nM.
For `O=C(O)c1ccc2nc(NS(=O)(=O)c3cnc(-c4ccc(F)cc4)s3)sc2c1` [Example 94] the value was 1000 to 100000 nM; for `CCCCC[C@H]1CC[C@H](c2ccc(-c3nc(S(=O)(=O)Nc4cc(F)c(C(=O)O)cc4OC)cs3)c(F)c2)CC1` [Example 759], 100 to 500 nM; for `COc1cc(C(=O)O)c(F)cc1NS(=O)(=O)c1ccn(-c2ccc([C@H]3CC[C@H](C(F)(F)F)CC3)cc2)n1` [Example 692], 100 to 500 nM.
As for `COc1cc(C(=O)O)ccc1NS(=O)(=O)c1cnc(-c2ccc(C3CCC4(CC3)CC4)cc2)s1` [Example 746], the IC50 lay within 100 to 500 nM.
The figure for `COc1cc(C(=O)O)c(F)cc1NS(=O)(=O)c1csc(-c2ccc(C3=CCC(C)(C)CC3)cc2OC)n1` [Example 536] is less than 100 nM; for `COc1cc(C(=O)O)ccc1NS(=O)(=O)c1ccc(C#Cc2ccccc2)s1` [Example 168] it is 100 to 500 nM; for `O=C(O)c1ccc2c(c1)CCN2S(=O)(=O)c1ccccc1` [Example 13] it is 1000 to 100000 nM.
Regarding `COc1cc(C(=O)O)c(F)cc1NS(=O)(=O)c1csc(-c2ccc([C@H]3CC[C@@H](C(F)(F)F)CC3)cc2C(F)(F)F)n1` [Example 606], the IC50 is less than 100 nM.

(Values after patent US12384753B2, “17-beta-hydroxysteroid dehydrogenase type 13 inhibitors and methods of use thereof” (Enanta Pharmaceuticals, Inc., priority 2021, dated 2025).)
